Test [1] deals with T1, MycG (Micromonospora griseorubida, UniProt Q59523).
T1 sequence (Q59523 1-397): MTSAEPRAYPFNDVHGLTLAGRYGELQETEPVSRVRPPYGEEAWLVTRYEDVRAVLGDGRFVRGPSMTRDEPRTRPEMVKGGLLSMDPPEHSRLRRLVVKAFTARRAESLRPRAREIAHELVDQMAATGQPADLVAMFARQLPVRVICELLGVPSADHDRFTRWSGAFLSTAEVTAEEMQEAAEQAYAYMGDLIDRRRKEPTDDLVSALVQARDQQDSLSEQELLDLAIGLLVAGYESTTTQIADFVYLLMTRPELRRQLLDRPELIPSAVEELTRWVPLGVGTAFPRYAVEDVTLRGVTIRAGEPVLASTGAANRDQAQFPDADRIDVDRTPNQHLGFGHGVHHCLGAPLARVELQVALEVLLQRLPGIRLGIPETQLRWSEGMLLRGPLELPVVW
The test can be described thus: spectral substrate binding assay.

The target in test [2] is T1, MycG. Briefly: spectral substrate binding assay. This is another data set of the same source.
The target of another test is T2, MycCI (Micromonospora griseorubida, UniProt Q83WF5).
T2 sequence (Q83WF5 1-388): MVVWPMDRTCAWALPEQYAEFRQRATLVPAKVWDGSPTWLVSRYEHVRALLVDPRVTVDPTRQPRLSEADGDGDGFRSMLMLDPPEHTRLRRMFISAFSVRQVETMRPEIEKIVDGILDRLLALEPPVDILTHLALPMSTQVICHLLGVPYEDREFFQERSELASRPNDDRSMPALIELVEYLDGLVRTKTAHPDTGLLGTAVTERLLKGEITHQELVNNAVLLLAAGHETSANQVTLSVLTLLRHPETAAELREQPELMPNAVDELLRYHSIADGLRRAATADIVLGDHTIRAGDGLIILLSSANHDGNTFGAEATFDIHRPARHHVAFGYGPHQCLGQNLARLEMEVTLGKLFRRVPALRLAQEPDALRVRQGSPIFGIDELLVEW
The test can be described thus: spectral substrate binding assay.

For test [3], the target named is MycCI cytochrome P450, C-terminal 6 x His tagged (Micromonospora griseorubida) (UniProt Q83WF5). Briefly: spectral ferredoxin titration.
For test [4], the target named is T3, MycCI cytochrome P450, C-terminal 6 x His tagged (Micromonospora griseorubida, UniProt Q83WF5 1-388).
T3 sequence (looked up): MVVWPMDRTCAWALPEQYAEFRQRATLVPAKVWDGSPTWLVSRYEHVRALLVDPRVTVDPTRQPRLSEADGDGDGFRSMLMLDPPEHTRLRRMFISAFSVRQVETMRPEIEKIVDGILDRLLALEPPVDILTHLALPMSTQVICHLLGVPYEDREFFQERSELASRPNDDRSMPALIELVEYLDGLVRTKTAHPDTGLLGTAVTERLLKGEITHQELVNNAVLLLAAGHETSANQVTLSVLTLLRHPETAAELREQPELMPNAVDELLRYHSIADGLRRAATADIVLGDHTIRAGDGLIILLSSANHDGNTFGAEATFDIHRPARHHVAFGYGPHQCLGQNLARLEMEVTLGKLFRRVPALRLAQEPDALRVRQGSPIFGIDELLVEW
Briefly: spectral ferredoxin titration.

Where two headings read alike, the source gives them in different places.

For the molecule `CC[C@H]1OC(=O)/C=C/[C@H](C)[C@@H](O[C@@H]2O[C@H](C)C[C@H](N(C)C)[C@H]2O)[C@@H](C)C[C@@H](C)C(=O)/C=C/[C@H]2O[C@@H]2[C@]1(O)CO[C@@H]1O[C@H](C)[C@@H](O)[C@@H](OC)[C@H]1OC` [M-II, mycinamicin II], at MycG [1], binding was put at a Kd of 71.5 ± 8.4 µM.
Still for that read-out and setting: the result for `CC[C@H]1OC(=O)/C=C/[C@H](C)[C@@H](O[C@@H]2O[C@H](C)C[C@H](N(C)C)[C@H]2O)[C@@H](C)C[C@@H](C)C(=O)/C=C/C=C/[C@@H]1CO[C@@H]1O[C@H](C)[C@@H](O)[C@@H](OC)[C@H]1OC` [M-IV, mycinamicin IV] reads 0.7 ± 0.1 µM.
`CC[C@H]1OC(=O)/C=C/[C@H](C)[C@@H](O[C@@H]2O[C@H](C)C[C@H](N(C)C)[C@H]2O)[C@@H](C)C[C@@H](C)C(=O)/C=C/C=C/[C@]1(O)CO[C@@H]1O[C@H](C)[C@@H](O)[C@@H](OC)[C@H]1OC` [M-V, mycinamicin V] registered a Kd on MycG [2] of 10.4 ± 0.2 µM.
With `CC[C@H]1OC(=O)/C=C/[C@@H](C)[C@H](O[C@H]2O[C@@H](C)C[C@@H](N(C)C)[C@@H]2O)[C@H](C)C[C@@H](C)C(=O)/C=C\C=C\[C@H]1C` [M-VIII, mycinamicin VIII], binding on MycCI was put at a Kd of 28.1 ± 3.2 µM.
Turning to “spinach ferredoxin (from UniProt P00221 51-147) (natural protein)”, the equilibrium dissociation constant (Kd) in test [3] came out at 149 µM.

B1: N-terminal 6 x His-tagged ferredoxin MycCII (natural protein, Micromonospora griseorubida, UniProt Q83WF4 1-74, looked up)
chain: MRIVLDAERCVGAGQCEATAPELFTQGDDGLGLVRDRPVTPELLGPAREAVDRCPVRAIRIESSVRTGWARGAG
B1: in test [4], the Kd is 7 ± 0.1 µM.

Broadly, the Kd is the constant that tells how readily two partners part at equilibrium. Read a high Kd as lower affinity.

For the origin of these results see PMC2774819 (Chemistry & biology, 2008).
